Reference: patent US20100267561A1, “HERBICIDAL PYRIDAZINONE DERIVATIVES” (priority 2007, published 2010)

Tests used:
Experiment in all cases: Test B pre-/postemergence plant response
Assay type in all cases: in vivo
[1] = tested on: Russian thistle (Salsola iberica); conditions: Preemergence
Outline: (§1)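 Preemergence and postemergence (plants 2-18 cm, 1- to 4-leaf stage) applications used test chemicals in a non-phytotoxic solvent with surfactant. Plants were held in a greenhouse 13 to 15 days, then rated visually against controls on a 0-100 scale (0 no effect, 100 complete control).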

[2] = tested on: blackgrass (Alopecurus myosuroides); conditions: for Blackgrass plant response rating: 8 g ai/ha
Outline: as §1

[3] = tested on: catchweed bedstraw (Galium aparine); conditions: Preemergence
Outline: as §1

[4] = tested on: cocklebur (Xanthium strumarium); conditions: for Cocklebur plant response rating: 8 g ai/ha
Outline: as §1

[5] = tested on: common ragweed (Ambrosia elation); conditions: for Ragweed plant response rating: 8 g ai/ha
Outline: as §1

corn (Zea mays) = conditions: for Corn plant response rating: 8 g ai/ha
Outline: as §1

[6] = tested on: goosegrass (Eleusine indica); conditions: for Goosegrass plant response rating: 8 g ai/ha
Outline: as §1

[7] = tested on: johnsongrass (Sorghum halepense); conditions: for Johnsongrass plant response rating: 8 g ai/ha
Outline: as §1

kochia (Kochia scoparia) = conditions: for Kochia plant response rating: 8 g ai/ha
Outline: as §1

[8] = tested on: large crabgrass (Digitaria sanguinalis); conditions: for Crabgrass, Large plant response rating: 8 g ai/ha
Outline: as §1

[9] = tested on: velvetleaf (Abutilon theophrasti); conditions: for Velvetleaf plant response rating: 8 g ai/ha
Outline: as §1

wild oat (Avena fatua) = conditions: for Oat, Wild plant response rating: 8 g ai/ha
Outline: as §1

[10] = tested on: woolly cupgrass (Eriochloa villosa); conditions: for Cupgrass, Woolly plant response rating: 8 g ai/ha
Outline: as §1

[11] = tested on: yellow nutsedge (Cyperus esculentus); conditions: for Nutsedge, Yellow plant response rating: 8 g ai/ha
Outline: as §1

[12] = 31 g ai/ha, 0 to 100 scale, 0 no effect, 100 complete control
[13] = Postemergence, 16 g ai/ha, scale 0 to 100
[14] = Postemergence, 31 g ai/ha, scale 0 to 100, 0 no effect, 100 complete control
[15] = Postemergence, 62 g ai/ha, scale 0 to 100
[16] = Preemergence, 16 g ai/ha, scale 0 to 100 (0 no effect, 100 complete control)
[17] = Preemergence, 31 g ai/ha, 0 to 100 scale, 0 no effect, 100 complete control
[18] = Preemergence, 62 g ai/ha, scale 0 to 100

CCc1cc(-c2ccc(C(F)(F)F)cc2)nn1-c1c(OS(C)(=O)=O)cnn(C)c1=O [Compound 19]
Plant response rating, Russian Thistle ([1]; 16 g ai/ha, scale 0 to 100 (0 no effect, 100 complete control)): 0
Plant response rating, Russian Thistle [1, 12]: 0
Russian Thistle plant response rating ([1]; 8 g ai/ha, scale 0 to 100): 0
Blackgrass plant response rating ([2]; postemergence, 0-100 scale): 80
Plant response rating, Blackgrass [2, 13]: 85
Plant response rating, Blackgrass [2, 14]: 90
Plant response rating, Blackgrass [2, 15]: 95
Plant response rating, Blackgrass [2, 16]: 100
Plant response rating, Blackgrass [2, 17]: 100
Plant response rating, Blackgrass [2, 18]: 100
Blackgrass plant response rating ([2]; Preemergence, scale 0 to 100): 95
Plant response rating, Galium [3, 12]: 0
Plant response rating, Galium ([3]; 62 g ai/ha, scale 0 to 100): 0
Galium plant response rating ([3]; 8 g ai/ha, scale 0 to 100): 0
Cocklebur plant response rating ([4]; postemergence, 0-100 scale): 0
Plant response rating, Cocklebur [4, 13]: 0
Plant response rating, Cocklebur [4, 14]: 0
Plant response rating, Cocklebur [4, 15]: 0
Plant response rating, Cocklebur [4, 16]: 0
Plant response rating, Cocklebur [4, 17]: 0
Plant response rating, Cocklebur [4, 18]: 0
Cocklebur plant response rating ([4]; Preemergence, scale 0 to 100): 0
Ragweed plant response rating ([5]; postemergence, 0-100 scale): 0
Plant response rating, Ragweed [5, 13]: 0
Plant response rating, Ragweed [5, 14]: 0
Plant response rating, Ragweed [5, 15]: 0
Plant response rating, Ragweed [5, 16]: 0
Plant response rating, Ragweed [5, 17]: 0
Plant response rating, Ragweed [5, 18]: 0
Ragweed plant response rating ([5]; Preemergence, scale 0 to 100): 0
Corn plant response rating (corn (Zea mays); postemergence, 0-100 scale): 0
Plant response rating, Corn (corn (Zea mays); [13]): 0
Plant response rating, Corn (corn (Zea mays); [14]): 0
Plant response rating, Corn (corn (Zea mays); [15]): 95
Plant response rating, Corn (corn (Zea mays); [16]): 85
Plant response rating, Corn (corn (Zea mays); [17]): 95
Plant response rating, Corn (corn (Zea mays); [18]): 98
Corn plant response rating (corn (Zea mays); Preemergence, scale 0 to 100): 70
Goosegrass plant response rating ([6]; postemergence, 0-100 scale): 50
Plant response rating, Goosegrass [6, 13]: 80
Plant response rating, Goosegrass [6, 14]: 80
Plant response rating, Goosegrass [6, 15]: 90
Plant response rating, Goosegrass [6, 16]: 75
Plant response rating, Goosegrass [6, 17]: 100
Plant response rating, Goosegrass [6, 18]: 100
Goosegrass plant response rating ([6]; Preemergence, scale 0 to 100): 0
Johnsongrass plant response rating ([7]; postemergence, 0-100 scale): 40
Plant response rating, Johnsongrass [7, 13]: 80
Plant response rating, Johnsongrass [7, 14]: 100
Plant response rating, Johnsongrass [7, 15]: 100
Plant response rating, Johnsongrass [7, 16]: 100
Plant response rating, Johnsongrass [7, 17]: 100
Plant response rating, Johnsongrass [7, 18]: 100
Johnsongrass plant response rating ([7]; Preemergence, scale 0 to 100): 80
Kochia plant response rating (kochia (Kochia scoparia); postemergence, 0-100 scale): 0
Plant response rating, Kochia (kochia (Kochia scoparia); [13]): 0
Plant response rating, Kochia (kochia (Kochia scoparia); [14]): 0
Plant response rating, Kochia (kochia (Kochia scoparia); [15]): 0
Plant response rating, Kochia (kochia (Kochia scoparia); [16]): 0
Plant response rating, Kochia (kochia (Kochia scoparia); [18]): 0
Kochia plant response rating (kochia (Kochia scoparia); Preemergence, scale 0 to 100): 0
Crabgrass, Large plant response rating ([8]; postemergence, 0-100 scale): 80
Plant response rating, Crabgrass, Large [8, 13]: 85
Plant response rating, Crabgrass, Large [8, 14]: 95
Plant response rating, Crabgrass, Large [8, 15]: 100
Plant response rating, Crabgrass, Large [8, 16]: 100
Plant response rating, Crabgrass, Large [8, 17]: 100
Plant response rating, Crabgrass, Large [8, 18]: 100
Crabgrass, Large plant response rating ([8]; Preemergence, scale 0 to 100): 50
Velvetleaf plant response rating ([9]; postemergence, 0-100 scale): 0
Plant response rating, Velvetleaf [9, 13]: 0
Plant response rating, Velvetleaf [9, 14]: 0
Plant response rating, Velvetleaf [9, 15]: 0
Plant response rating, Velvetleaf [9, 16]: 0
Plant response rating, Velvetleaf [9, 17]: 0
Plant response rating, Velvetleaf [9, 18]: 0
Velvetleaf plant response rating ([9]; Preemergence, scale 0 to 100): 0
Oat, Wild plant response rating (wild oat (Avena fatua); postemergence, 0-100 scale): 90
Plant response rating, Oat, Wild (wild oat (Avena fatua); [13]): 98
Plant response rating, Oat, Wild (wild oat (Avena fatua); [14]): 100
Plant response rating, Oat, Wild (wild oat (Avena fatua); [15]): 100
Plant response rating, Oat, Wild (wild oat (Avena fatua); [16]): 75
Plant response rating, Oat, Wild (wild oat (Avena fatua); [17]): 95
Plant response rating, Oat, Wild (wild oat (Avena fatua); [18]): 95
Oat, Wild plant response rating (wild oat (Avena fatua); Preemergence, scale 0 to 100): 60
Cupgrass, Woolly plant response rating ([10]; postemergence, 0-100 scale): 90
Plant response rating, Cupgrass, Woolly [10, 13]: 90
Plant response rating, Cupgrass, Woolly [10, 14]: 100
Plant response rating, Cupgrass, Woolly [10, 15]: 100
Plant response rating, Cupgrass, Woolly [10, 16]: 85
Plant response rating, Cupgrass, Woolly [10, 17]: 98
Plant response rating, Cupgrass, Woolly [10, 18]: 100
Cupgrass, Woolly plant response rating ([10]; Preemergence, scale 0 to 100): 50
Nutsedge, Yellow plant response rating ([11]; postemergence, 0-100 scale): 0
Plant response rating, Nutsedge, Yellow [11, 13]: 0
Plant response rating, Nutsedge, Yellow [11, 14]: 0
Plant response rating, Nutsedge, Yellow [11, 15]: 30
Plant response rating, Nutsedge, Yellow [11, 16]: 0
Plant response rating, Nutsedge, Yellow [11, 17]: 0
Plant response rating, Nutsedge, Yellow [11, 18]: 0
Nutsedge, Yellow plant response rating ([11]; Preemergence, scale 0 to 100): 0
